Data on 22 compounds can be found in patent US20230118795A1, “ARYL OR HETEROARYL PYRIDONE OR PYRIMIDINE DERIVATIVE, PREPARATION METHOD AND USE THEREOF” (SUZHOU ZELGEN BIOPHARMACEUTICALS CO., LTD., priority 2020, published 2023).

The first experiment deals with NCI-H358 (KRAS^G12C mutation) cell. Kind of experiment: Cell assay of antiproliferative activity against NCI-H358 cell (Celltiter-Glo, 5 days). In kind it is cell-based. Particulars: 5 days incubation. How it is done: Cell Assay of Antiproliferative Activity of Compounds Against NCI-H358 (KRAS^G12C Mutation) Cell.
40 μL phosphate buffer was added to the outer wells of the 384 microplate, and 40 μL cell suspension to be tested was added to the other wells. Then the microplate was incubated in a carbon dioxide incubator overnight.
The compounds to be tested were gradiently diluted, each compound was performed 10 concentration gradients (diluted from 50 μM to 0.003 μM) and added 100 nL to the corresponding wells in the microplate. After addition, 40 μl of phosphate buffer was added to each well in rows A and P and columns 1 and 24, and then the microplate was incubated in a carbon dioxide incubator for 5 days.
20 μL of Promega Celltiter-Glo reagent was added to each well of the microplate, and then the luminescence signal was stabilized by oscillating at room temperature for 10 min. Then PekinElmer Envision multi-label analyzer was used to read.
Finally, GraphPad Prism software was used to calculate the IC50 value of the compound and the fitting curve was drawn.
Anti-proliferative activity of the compounds of the present invention against NCI-H358 (KRAS^G12C mutation) cell was shown in Table 1.
A general note: Cellular ATP, detected with luciferase, serves as a proxy for viable cell number.
The IC50 is the point on the concentration scale where inhibition reaches its midpoint. `C=CC(=O)N1CCN(c2nc(=O)n(-c3c(C(C)C)cccc3S(C)(=O)=O)c3nc(-c4c(Cl)ccc5cn[nH]c45)c(F)cc23)[C@@H](C)C1` [Example 75] came in with an IC50 above 10000 nM.
Compound `C=CC(=O)N1CCN(c2nc(=O)n(-c3c(C4CC4)cccc3S(C)(=O)=O)c3nc(-c4c(O)cccc4F)c(F)cc23)[C@@H](C)C1` (single isomer, unassigned) [Example 6B] gave a concentration for half-maximal inhibition (IC50) of 15 nM.
Compound `C=CC(=O)N1CCN(c2nc(=O)n(-c3c(S(C)(=O)=O)ccnc3C(C)C)c3nc(-c4c(O)cccc4F)c(F)cc23)[C@@H](C)C1` (single isomer, unassigned) [Example 18B] returned an IC50 of 460 nM.
As for `C=CC(=O)N1C[C@H](C)N(c2nc(=O)n(-c3c(C4CC4)cccc3S(C)(=O)=O)c3nc(-c4c(O)cccc4F)c(F)cc23)C[C@H]1C` (single isomer, unassigned) [Example 81B], the half-inhibitory concentration (IC50) is 9 nM.
On to `C=CC(=O)N1CCN(c2nc(=O)n(-c3c(C4CCC4)cccc3S(C)(=O)=O)c3nc(-c4c(O)cccc4F)c(F)cc23)[C@@H](C)C1` (single isomer, unassigned) [Example 25B], for which half-maximal inhibition (IC50) was put at 6 nM. Compared with the last compound, the IC50 is about 1.5-fold lower.
For `C=CC(=O)N1CCN(c2nc(=O)n(-c3c(C(C)C)cccc3S(C)(=O)=O)c3nc(-c4ccccc4Cl)c(F)cc23)[C@@H](C)C1` [Example 30, (S)-4-(4-acryloyl-2-methylpiperazin-1-yl)-7-(2-chlorophenyl)-6-fluoro-1-(2-isopropyl-6-(methylsulfonyl)phenyl) pyridino[2,3-d]pyrimidin-2(1H)-one], half-maximal inhibition (IC50) was put at 18 nM.
In the case of `C=CC(=O)N1CCN(c2nc(=O)n(-c3cnccc3S(C)(=O)=O)c3nc(-c4c(O)cccc4F)c(F)cc23)[C@@H](C)C1` [Example 89], the half-maximal inhibitory concentration (IC50) lay within 1000 to 10000 nM.
Compound `C=CC(=O)N1CCN(c2nc(=O)n(-c3c(C(C)C)cccc3S(C)(=O)=O)c3nc(-c4c(F)cccc4OC(C)=O)c(F)cc23)[C@@H](C)C1` (single isomer, unassigned) [Example 31B] had an IC50 of 6 nM.
In turn, `C=CC(=O)N1CCN(c2nc(=O)n(-c3c(C(C)C)cccc3S(C)(=O)=O)c3nc(-c4ccccc4Cl)c(F)cc23)[C@@H](C)C1` (single isomer, unassigned) [Example 30B] yielded an IC50 of 11 nM.
The compound `C=CC(=O)N1CCN(c2nc(=O)n(-c3c(C(C)C)cccc3S(C)(=O)=O)c3nc(-c4c(F)cccc4OC(C)=O)c(F)cc23)[C@@H](C)C1` (single isomer, unassigned) [Example 31A] gave a half-maximal inhibitory concentration (IC50) of 300 nM.
Same read-out and setting: next, `C=CC(=O)N1CCN(c2nc(=O)n(-c3c(CC)cccc3S(C)(=O)=O)c3nc(-c4c(O)cccc4F)c(F)cc23)[C@@H](C)C1` [Example 5, 4-((S)-4-acrylo-2-methylpiperazin-1-yl)-1-(2-ethyl-6-(methylsulfonyl)phenyl)-6-fluoro-7-(2-fluoro-6-hydroxyphenyl) pyridino[2,3-d] pyrimidin-2(1H)-one]: 28 nM.
Compound `C=CC(=O)N1CCN(c2nc(=O)n(-c3c(C(C)C)cccc3S(C)(=O)=O)c3nc(-c4ccccc4Cl)c(F)cc23)[C@@H](C)C1` (single isomer, unassigned) [Example 30A] registered a 50% inhibitory concentration (IC50) of 740 nM.

Staying with this experiment, now noted: Homo sapiens, NCI-H358, 120 h, 5 days incubation.
`C=C(F)C(=O)N1CCN(c2nc(=O)n(-c3c(C(C)C)cccc3S(C)(=O)=O)c3nc(-c4c(O)cccc4F)c(F)cc23)[C@@H](C)C1` [Example 21] showed an IC50 of 1200 nM.
The compound `C=CC(=O)N1CCN(c2nc(=O)n(-c3c(C(C)C)ccnc3S(C)(=O)=O)c3nc(-c4c(F)cccc4Cl)c(F)cc23)[C@@H](C)C1` [Example 28, 4-((S)-4-acryloyl-2-methylpiperazin-1-yl)-7-(2-chloro-6-fluorophenyl)-6-fluoro-1-(4-isopropyl-2-(methylsulfonyl)pyridin-3-yl) pyridino[2,3-d] pyrimidin-2(1H)-one] gave an IC50 of 26 nM. This IC50 is about 46-fold lower than that of the compound before.
Still for that read-out and setting: the result for `C=CC(=O)N1CCN(c2nc(=O)n(-c3ccccc3S(=O)(=O)C(C)C)c3nc(-c4c(O)cccc4F)c(F)cc23)[C@@H](C)C1` [Example 86, 4-((S)-4-acryloyl-2-methylpiperazin-1-yl)-6-fluoro-7-(2-fluoro-6-hydroxyphenyl)-1-(2-(isopropylsulfonyl)phenyl) pyridino[2,3-d] pyrimidin-2(1H)-one] reads below 1000 nM; that for `C=CC(=O)N1C[C@H](C)N(c2nc(=O)n(-c3c(CC)cccc3S(C)(=O)=O)c3nc(-c4c(O)cccc4F)c(F)cc23)C[C@H]1C` [Example 12, 4-((2S,5R)-4-acryloyl-2,5-dimethylpiperazin-1-yl)-1-(2-ethyl-6-(methylsulfonyl)phenyl)-6-fluoro-7-(2-fluoro-6-hydroxyphenyl) pyridino [2,3-d] pyrimidin-2 (1H)-one], 41 nM.
Regarding `C=CC(=O)N1CCN(c2nc(=O)n(-c3c(C(C)C)ccnc3S(C)(=O)=O)c3nc(-c4c(O)cccc4Cl)c(F)cc23)[C@@H](C)C1` [Example 27, 4-((S)-4-acryloyl-2-methylpiperazin-1-yl)-7-(2-chloro-6-hydroxyphenyl)-6-fluoro-1-(4-isopropyl-2-(methylsulfonyl)pyridin-3-yl) pyridino[2,3-d] pyrimidin-2(1H)-one], the IC50 is 30 nM. This IC50 and that of the compound before are within 1.5-fold of each other.
In turn, `C=CC(=O)N1CCN(c2nc(=O)n(-c3ccccc3S(C)(=O)=O)c3nc(-c4c(O)cccc4F)c(F)cc23)C(CC(N)=O)C1` (stereo not shown) [Example 61, 2-(4-acryloyl-1-(6-fluoro-7-(2-fluoro-6-hydroxyphenyl)-1-(2-(methylsulfonyl)phenyl)-2-oxo-1,2-dihydropyridino [2,3-d]pyrimidin-4-yl)piperazin-2-yl) acetamide] displayed a concentration for half-maximal inhibition (IC50) above 10000 nM.
Still for that read-out and setting: the result for `C=CC(=O)N1CCN(c2nc(=O)n(-c3c(C)cccc3S(C)(=O)=O)c3nc(-c4c(O)cccc4F)c(F)cc23)[C@@H](C)C1` [Example 87, 4-((S)-4-acryloyl-2-methylpiperazin-1-yl)-6-fluoro-7-(2-fluoro-6-hydroxyphenyl)-1-(2-methyl-6-(methylsulfonyl)phenyl) pyridino[2,3-d] pyrimidin-2(1H)-one] reads below 100 nM; that for `C=CC(=O)N1CCN(c2nc(=O)n(-c3c(C(C)C)cccc3S(C)(=O)=O)c3nc(-c4ccn[nH]4)c(F)cc23)[C@@H](C)C1` [Example 69, (S)-4-(4-acryloyl-2-methylpiperazin-1-yl)-6-fluoro-1-(2-isopropyl-6-(methylsulfonyl)phenyl)-7-(1H-pyrazol-5-yl) pyridino[2,3-d] pyrimidin-2(1H)-one], above 10000 nM.
In turn, `C=CC(=O)N1CCN(c2nc(=O)n(-c3c(C)cccc3S(C)(=O)=O)c3nc(-c4c(O)cccc4F)c(F)cc23)[C@@H](CC#N)C1` [Example 3, 2-((2S)-4-acryloyl-1-(6-fluoro-7-(2-fluoro-6-hydroxyphenyl)-1-(2-methyl-6-(methylsulfonyl)phenyl)-2-oxo-1,2-dihydropyridino[2,3-d]pyrimidin-4-yl)piperazin-2-yl) acetonitrile] gave a 50% inhibitory concentration (IC50) of 870 nM.
Compound `C=CC(=O)N1CCN(c2nc(=O)n(-c3c(C(C)C)ccnc3S(C)(=O)=O)c3nc(-c4c(F)cccc4OC)c(F)cc23)[C@@H](C)C1` [Example 19, 4-((S)-4-acryloyl-2-methylpiperazin-1-yl)-6-fluoro-7-(2-fluoro-6-methoxyphenyl)-1-(4-isopropyl-2-(methylsulfonyl)pyridin-3-yl) pyridino[2,3-d]pyrimidin-2(1H)-one] gave a half-maximal inhibitory concentration (IC50) of 48 nM.
